Experiments:
Assay in all cases: relative viability vs DMSO control (72 h) (fraction); higher = more viable cells
SW684 = system: SW684
Outline: (§1)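 Relative viability is percent growth read by ATPLite and averaged over up to triplicate wells. Sarcoma cells were seeded in 384-well plates to reach 80–90% confluence and given 2.5 µl of serially diluted compound after 24 h, from source plates of 10 mM to 0.0002 mM. Incubation lasted 72 h at 37 °C, 5% CO2, with 0.1% DMSO vehicle and a 5 µM positive control, and the data were rescaled so 1 equals full and 0 equals none.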

A204 = system: A204
Outline: as §1

SK-ES-1 = system: SK-ES-1
Outline: as §1

G401 = system: G401
Outline: as §1

SK-LMS-1 = system: SK-LMS-1
Outline: as §1

HS729 = system: HS729
Outline: as §1

SW872 = system: SW872
Outline: as §1

MES-SA = system: MES-SA
Outline: as §1

SYO-1 = system: SYO-1
Outline: as §1

SW1353 = system: SW1353
Outline: as §1

SW982 = system: SW982
Outline: as §1

KHOS-240S = system: KHOS-240S
Outline: as §1

Cc1c2oc3c(C)ccc(C(=O)N[C@@H]4C(=O)N[C@H](C(C)C)C(=O)N5CCC[C@H]5C(=O)N(C)CC(=O)N(C)[C@@H](C(C)C)C(=O)O[C@@H]4C)c3nc-2c(C(=O)N[C@@H]2C(=O)N[C@H](C(C)C)C(=O)N3CCC[C@H]3C(=O)N(C)CC(=O)N(C)[C@@H](C(C)C)C(=O)O[C@@H]2C)c(N)c1=O [Dactinomycin]
Settings	relative viability
A204, 0.00017 µM	1.02
A204, 0.00051 µM	0.99
A204, 0.00152 µM	0.641
A204, 0.00457 µM	0.393
A204, 0.01372 µM	0.277
A204, 0.04115 µM	0.234
A204, 0.1235 µM	0.193
A204, 0.3704 µM	0.201
A204, 1.111 µM	0.169
A204, 3.333 µM	0.161
A204, 10 µM	0.168
G401, 0.00017 µM	0.948
G401, 0.00051 µM	0.877
G401, 0.00152 µM	0.652
G401, 0.00457 µM	0.441
G401, 0.01372 µM	0.279
G401, 0.04115 µM	0.211
G401, 0.1235 µM	0.155
G401, 0.3704 µM	0.118
G401, 1.111 µM	0.087
G401, 3.333 µM	0.0667
G401, 10 µM	0.0642
HS729, 0.00017 µM	0.912
HS729, 0.00051 µM	0.937
HS729, 0.00152 µM	0.884
HS729, 0.00457 µM	0.8961
HS729, 0.01372 µM	0.711
HS729, 0.04115 µM	0.128
HS729, 0.1235 µM	0.166
HS729, 0.3704 µM	0.119
HS729, 1.111 µM	0.108
HS729, 3.333 µM	0.113
HS729, 10 µM	0.132
KHOS-240S, 0.00017 µM	1.04
KHOS-240S, 0.00051 µM	1.06
KHOS-240S, 0.00152 µM	0.864
KHOS-240S, 0.00457 µM	0.73
KHOS-240S, 0.01372 µM	0.499
KHOS-240S, 0.04115 µM	0.202
KHOS-240S, 0.1235 µM	0.0803
KHOS-240S, 0.3704 µM	0.0989
KHOS-240S, 1.111 µM	0.0816
KHOS-240S, 3.333 µM	0.0805
KHOS-240S, 10 µM	0.0884
MES-SA, 0.00017 µM	0.9129
MES-SA, 0.00051 µM	0.835
MES-SA, 0.00152 µM	0.354
MES-SA, 0.00457 µM	0.321
MES-SA, 0.01372 µM	0.265
MES-SA, 0.04115 µM	0.0423
MES-SA, 0.1235 µM	0.0397
MES-SA, 0.3704 µM	0.0566
MES-SA, 1.111 µM	0.0464
MES-SA, 3.333 µM	0.0357
MES-SA, 10 µM	0.0424
SK-ES-1, 0.00017 µM	1.03
SK-ES-1, 0.00051 µM	0.976
SK-ES-1, 0.00152 µM	0.694
SK-ES-1, 0.00457 µM	0.423
SK-ES-1, 0.01372 µM	0.251
SK-ES-1, 0.04115 µM	0.00443
SK-ES-1, 0.1235 µM	-0.00147
SK-ES-1, 0.3704 µM	-0.0034
SK-ES-1, 1.111 µM	-0.0043
SK-ES-1, 3.333 µM	-0.00447
SK-ES-1, 10 µM	0.0007
SK-LMS-1, 0.00017 µM	1
SK-LMS-1, 0.00051 µM	1.02
SK-LMS-1, 0.00152 µM	0.994
SK-LMS-1, 0.00457 µM	0.86
SK-LMS-1, 0.01372 µM	0.664
SK-LMS-1, 0.04115 µM	0.364
SK-LMS-1, 0.1235 µM	0.292
SK-LMS-1, 0.3704 µM	0.27
SK-LMS-1, 1.111 µM	0.287
SK-LMS-1, 3.333 µM	0.288
SK-LMS-1, 10 µM	0.3
SW684, 0.00017 µM	1.13
SW684, 0.00051 µM	1.16
SW684, 0.00152 µM	1.09
SW684, 0.00457 µM	0.992
SW684, 0.01372 µM	0.835
SW684, 0.04115 µM	0.687
SW684, 0.1235 µM	0.763
SW684, 0.3704 µM	0.775
SW684, 1.111 µM	0.795
SW684, 3.333 µM	0.816
SW684, 10 µM	0.766
SW872, 0.00017 µM	0.96
SW872, 0.00051 µM	0.975
SW872, 0.00152 µM	0.992
SW872, 0.00457 µM	0.943
SW872, 0.01372 µM	0.765
SW872, 0.04115 µM	0.442
SW872, 0.1235 µM	0.171
SW872, 0.3704 µM	0.218
SW872, 1.111 µM	0.189
SW872, 3.333 µM	0.187
SW872, 10 µM	0.199
SW982, 0.00017 µM	1.06
SW982, 0.00051 µM	1.02
SW982, 0.00152 µM	0.858
SW982, 0.00457 µM	0.563
SW982, 0.01372 µM	0.382
SW982, 0.04115 µM	0.234
SW982, 0.1235 µM	0.15
SW982, 0.3704 µM	0.167
SW982, 1.111 µM	0.147
SW982, 3.333 µM	0.142
SW982, 10 µM	0.147
SW1353, 0.00017 µM	0.971
SW1353, 0.00051 µM	0.946
SW1353, 0.00152 µM	0.834
SW1353, 0.00457 µM	0.71
SW1353, 0.01372 µM	0.62
SW1353, 0.04115 µM	0.272
SW1353, 0.1235 µM	0.242
SW1353, 0.3704 µM	0.215
SW1353, 1.111 µM	0.183
SW1353, 3.333 µM	0.15
SW1353, 10 µM	0.1334
SYO-1, 0.00017 µM	0.883
SYO-1, 0.00051 µM	0.888
SYO-1, 0.00152 µM	0.606
SYO-1, 0.00457 µM	0.327
SYO-1, 0.01372 µM	0.259
SYO-1, 0.04115 µM	0.249
SYO-1, 0.1235 µM	0.239
SYO-1, 0.3704 µM	0.29
SYO-1, 1.111 µM	0.292
SYO-1, 3.333 µM	0.298
SYO-1, 10 µM	0.28

Reference: the supplement of paper PMC10883282
